The record followed here is article PMC2746553 (Biochemistry, 2009).

For test [1], the target named is T1, 15-hLO-2 (human epithelial 15-lipoxygenase-2) (Homo sapiens, UniProt O15296).
T1 sequence (O15296 1-676): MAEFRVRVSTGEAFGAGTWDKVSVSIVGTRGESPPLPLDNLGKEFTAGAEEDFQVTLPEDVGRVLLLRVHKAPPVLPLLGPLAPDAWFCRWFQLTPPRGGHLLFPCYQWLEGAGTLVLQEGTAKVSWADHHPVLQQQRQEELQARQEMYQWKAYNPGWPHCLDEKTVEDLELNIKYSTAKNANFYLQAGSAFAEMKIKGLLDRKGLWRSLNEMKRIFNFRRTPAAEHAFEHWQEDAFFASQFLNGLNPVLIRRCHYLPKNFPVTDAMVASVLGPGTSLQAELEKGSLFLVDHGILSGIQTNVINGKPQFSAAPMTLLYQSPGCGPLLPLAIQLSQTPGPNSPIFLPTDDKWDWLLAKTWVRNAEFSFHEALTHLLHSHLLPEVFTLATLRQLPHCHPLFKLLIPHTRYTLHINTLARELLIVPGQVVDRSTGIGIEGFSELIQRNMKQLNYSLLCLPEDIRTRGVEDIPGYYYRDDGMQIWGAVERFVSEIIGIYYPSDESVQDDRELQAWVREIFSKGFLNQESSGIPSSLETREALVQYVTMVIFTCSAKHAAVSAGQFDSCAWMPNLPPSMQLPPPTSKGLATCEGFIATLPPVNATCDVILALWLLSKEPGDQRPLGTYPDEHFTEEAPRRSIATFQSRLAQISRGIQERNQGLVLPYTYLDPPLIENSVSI
The test is described as follows: competitive kinetic isotope effect and competitive substrate capture. Type of test: biochemical.

In test [2] the target is T1, 15-hLO-2 (human epithelial 15-lipoxygenase-2). Nature of the test: steady-state inhibition kinetics with AA as substrate. Type of test: biochemical.
For test [3] the target is unchanged. The test is described as follows: competitive substrate capture, solvent isotope effect and steady-state kinetics. Type of test: biochemical.
Test [4] shares this target.

On to `CCCCC/C=C\C/C=C\CCCCCCCC(=O)O` [LA, linoleic acid], for which the “competitive kinetic isotope effect and competitive substrate capture (HPLC)” value in test [1] was 45 ± 3.
Turning to `CCCCC/C=C\C/C=C\CCCCCCCC(=O)O` [d31-LA], the affinity in test [2], expressed as Ki, was 17 ± 3 µM.
On to `CCCCC[C@H](O)/C=C/C=C\CCCCCCCC(=O)O` [13-HODE, 13-(S)-hydroxyoctadecadienoic acid], for which the Kd – broadly, the free concentration of one partner at which half of the binding sites on the other are occupied at equilibrium, for simple one-to-one binding – in test [3] is approximately 5 nM.
In the case of `CCCCC/C=C\C/C=C\C/C=C\C/C=C\CCCC(=O)O` [AA, arachidonic acid], the “steady-state kinetics (234 nm), kcat/KM at pH 7.5” value in test [4] came out at 0.15 ± 0.02 μM^-1 s^-1.
